We go through two molecules from patent publication US7008937B2, “Porphyrins and metalloporphyrins for inhibiting heme iron uptake” (Frontier Scientific, Inc., priority 2003, dated 2006).

pIC50: −log10 of the molar value. Like-named read-outs stand apart in the source and are kept apart here.

For data set [1], the system named is IEC-6 cells. Kind of data set: Inhibition of in vitro uptake of radiolabeled iron from heme in IEC-6 cells.
Procedure: In a first assay, confluent monolayers of IEC-6 cells were incubated with radioactive iron-labeled heme. […] In this assay, the heme had been previously solubilized in taurodeoxycholate micelles. Twelve-well tissue culture plates were used with 1 ml of phosphate-buffered saline (or “PBS”) containing Ca, Mg and glucose. Cells were incubated with the heme solution and a designated inhibitor for times indicated at a temperature of 37° C.
After incubation, the cells were washed with 1 ml of the same buffer at 4° C. three times. The cells were then solubilized by the addition of 1 ml of water and sonicated for 10 minutes in a Branson sonicator. The cells were removed by titration and transferred to 75 ml tubes. Subsequently, the radioactivity of the cells was determined using a gamma counter.
For an initial screen, each compound was added at a concentration of 800 micromolar, and given a timed uptake period of over 60 minutes. […] The concentration of inhibitor required to get a 50% decrease in heme uptake inhibition counts was then determined.
For data set [2] the following is noted: 800 μM. On the procedure: TMP (free base porphyrin) was used at 160 and 800 μM concentrations in the taurodeoxycholate-solubilized heme solution.
The subject of a further data set is rat duodenum. To be noted: for inhibition of incorporation of radiolabeled heme into the animals: 4 animals (FIG. 8). An excerpt: In this assay, Wistar rats were first anesthetized with pentobarbital. Wistar rats are from a strain originally developed at the Wistar Institute and commonly used all over the world for research. Following anesthesia, a midline incision was made in each of the rats. The duodenum of each animal was isolated between the pylorus and the ligament of Trietz by umbilical tape. The bile duct of each animal was then identified and ligated. Following this, a syringe was passed through the pylorus of each animal, and one ml of radiolabeled heme solution was introduced into the duodenum. The heme solutions used contained either only heme, or additionally included an appropriate concentration of an inhibitor to be evaluated.
Following introduction of the heme or heme/inhibitor solution, the duodenal loop of each animal was tied off. Heme absorption was allowed to continue for a period of 10 minutes. Following this absorption period, the duodenal loop of each rat was removed and the animal was killed. The rat carcass was counted in a whole body counter to determine the amount of radiolabeled heme isotope absorbed into the body from the duodenum.
The Wistar rats were divided into three groups of 4 animals each. Group 1 was used as a control group.
In this experiment, 5 animals were utilized in each of the control and testing groups. The incubation time period was extended to be fifteen minutes. […] The points seen in FIG. 9 represent the measurements obtained individual rats, while the shaded bars represent the mean value for each group of animals.

The conditions of data set [3]: 50 micromolar in duodenal loop, 15 minutes. The protocol:
Subsequently, cardiac punctures were performed on the rats, and between 0.45 and 1.3 ml of blood were collected from each. The plasma of the blood samples was separated and precipitated overnight with 10% trichloroacetic acid.

Data set [4] concerns IEC-6 cells.
The subject of the next data set is K562 cells. An excerpt: In a next set of experiments, K562 cells were used to test toxicity of the porphyrins of the invention. K562 cells are erythroleukemia cells from a cell line derived from a chronic myeloid leukemia patient in blast crisis. K562 cells were selected for this testing based on their ability to grow in suspension. This characteristic renders cell counting more reliable.

Setting [5] is: read-out: concentration giving about 50% inhibition of heme iron uptake, titration with increasing amounts of inhibitor, uptake determined after 30 minutes.
The mark [6] stands for this setting: one of two cell lines (summary).

Take `C[n+]1ccc(-c2c3nc(c(-c4cc[n+](C)cc4)c4ccc([nH]4)c(-c4cc[n+](C)cc4)c4nc(c(-c5cc[n+](C)cc5)c5ccc2[nH]5)C=C4)C=C3)cc1` [TMP, meso-tetra(N-methyl-4-pyridyl) porphine]: the pIC50 with IEC-6 cells [1] (read-out: concentration at which heme uptake is inhibited (as seen in FIGS. 2 and 4), summary of Tables 1 and 2) was about 3.12; with IEC-6 cells [1] (setting [5]) it was about 4.00. Besides, the “precipitation in the heme solution” value in data set [2] is “slight precipitate”. The “variation of inhibition in the group of animals” value in the data set with rat duodenum (800 μM, 10 minutes) is reported as “considerable variation in inhibition”. The “inhibition of incorporation of iron from heme into the body of the animal” value in the data set with rat duodenum (160 and 800 μM in heme solution, 10 minutes (FIG. 7)) is reported as “inhibition of iron uptake was observed”.
With `C[n+]1ccc(-c2c3nc(c(-c4cc[n+](C)cc4)c4ccc([n-]4)c(-c4cc[n+](C)cc4)c4nc(c(-c5cc[n+](C)cc5)c5ccc2[n-]5)C=C4)C=C3)cc1.[Cr+3]` [Cr-TMP, Cr (III) meso-tetra(N-methyl-4-pyridyl) porphine], in data set [3], the “absorption across the intestinal wall” value is recorded as “essentially no absorption”. Moreover, the “plasma level, bounded by limit of sensitivity of the measurement” value in data set [3] was under 40 nM. In addition, in data set [3] (447 nm), the “difference in plasma absorbance between control and treated groups” value is listed as “no difference”. Further, in the data set with IEC-6 cells [1], the “concentration range in which active as inhibitor” value is reported as “low micromolar range”. For the same molecule, the “toxicity to the cell monolayer under the inverted microscope” value in the data set on IEC-6 cells [1] (800 μM, 60 minutes) is listed as “No toxicity to the cell monolayer was observed”. Also, the “inhibition of heme iron uptake, timed uptake” value in the data set with IEC-6 cells [1] (800 μM, over 60 minutes, 37 degrees (FIG. 3)) is reported as “inhibition to approximately background”. Besides, the “inhibitory ability compared with the free base porphyrin” value in the data set on IEC-6 cells [1] (metal chelates of TMP) is given as “effective to still another order of magnitude”. For the same molecule, the pIC50 in the data set with IEC-6 cells [1] (setting [5]) is about 5.40. The “growth rate or extent” value in the data set with IEC-6 cells [4] (50 μM, up to 7 days' exposure (FIG. 11)) was “no decrease in growth rate or extent”. The “concentration up to which no toxicity was observed” value with IEC-6 cells [4] (day 4 (FIG. 12)) is on record as “about 100 μM”. In addition, the “toxicity at a high concentration relative to contemplated therapeutic dosage” value with IEC-6 cells [4] (setting [6]) and in the data set on K562 cells (setting [6]) was “no toxicity” throughout. Moreover, the “growth rate of the cells” value with K562 cells (50 micromolar in growth media (FIG. 10)) is “not decreased”. In the data set on K562 cells (concentrations above 50 micromolar, growth slowed, cells remained viable), the “cell growth at higher concentrations” value was “Some inhibition of cell growth”. In addition, the “toxicity after prolonged exposure” value with K562 cells (two weeks of exposure) is on record as “No toxicity”. Moreover, the “inhibition of incorporation of radiolabeled heme into the animals” value in the data set on rat duodenum (50 μM, 10 minutes) was “almost complete inhibition”; with rat duodenum (200 μM, 10 minutes), “almost complete inhibition”. The “in vivo inhibition of heme-iron uptake (conclusion)” value in the data set on rat duodenum (about 50 μM, 15 minutes (FIG. 9)) is “feasible in vivo”.
